In a melting point compilation (Tetko et al.; mined from patent text by program, amines drawn as free bases though some values may be those of a salt):

SMILES | melting point [°C]
Cc1cc2c(-c3ccccc3)c(CC(=O)NCc3ccccc3)n(C)c(=O)c2cc1C | 222
COC1=CCC2=C(CCC3C2CCC2(C)C(O)CCC32)C1 (centres undefined) | 110
COc1ccc(-c2nnc3c4ccccc4c(N(C)CCCCl)nn23)cc1 | 113 to 115
CC(Cc1cc(F)cc2cc(Cl)oc12)NC(=O)OC(C)(C)C (centres undefined) | 133 to 135
CON=C(c1nnn[nH]1)c1ccccc1COc1cc(C)ccc1C | 168 to 170
O=C(CCCS(=O)c1ccccc1)NO (centres undefined) | 61 to 62
CC1SC(c2cccnc2)N(CC(=O)OC(C)(C)C)C1=O (centres undefined) | 108
Cc1c(C(=O)Nc2ccc(OCCCN3CCOCC3)c(C#N)c2)cnn1-c1ccc(Cl)cc1 | 155 to 157
Nc1cc2c(cc1Br)-c1cc(Br)c(N)cc1S2(=O)=O | > 355
COC(=O)c1c[nH]cc1-c1cccc(Cl)c1Cl | 200 to 201
O=S(=O)(Nc1cccnc1Nc1ccccc1)c1ccc(Oc2ccccc2)cc1 | 164 to 166
Cc1ccc(C#N)c(N2CCc3ccccc3CC2)n1 | 78.5 to 80.7
COc1ccc2c(c1)c(Cc1nc(-c3ccc(Br)cc3)cs1)c(C)n2C(=O)c1ccc(Cl)cc1 | 177 to 180
Nc1cccc2nccnc12 | 87 to 90
O=C(c1ccc(F)cc1)c1ccc(Br)cc1 | 106 to 107
CCCc1c(OCCCSc2nc3ccc(C(=O)O)cc3[nH]2)ccc(C(C)=O)c1OC(C)=O | 85 to 87
CC1=C(CCN(O)C(N)=O)/C(=C/c2ccc(S(C)=O)cc2)c2ccccc21 (centres undefined) | 166 to 169
COc1ccc(-c2cc(O)nc(Nc3ccc(OC)c(Cl)c3)n2)cc1 | 292 to 294
C[C@H]1CN(C(=O)OC(C)(C)C)CCCN1S(=O)(=O)c1ccccc1[N+](=O)[O-] | 113 to 114
CN1CCc2cc(O)c(O)c(SCc3ccco3)c2CC1 | 162 to 165

SMILES | melting point [°C]
O=C(O)c1ccccc1Nc1ccc(CCCc2ccc([N+](=O)[O-])cc2)cc1 | 150 to 153
CC1(C(=O)Nc2cnc(Cl)c(Cl)c2)CC1 | 115 to 117
O=C(N[C@H]1CC[C@H](CCN2CCN(c3nccc4c3OCC4)CC2)CC1)C1(O)CC1 | 248
COCc1ccc(-c2ccc3c(c2)C=C(C(=O)Nc2ccc(CN(C)C4CCOCC4)cc2)CCS3(=O)=O)cc1 | 227 to 229
O=C1c2cc([N+](=O)[O-])ccc2-n2c1nc1ccccc1c2=O | 302 to 303
Cc1cc(C)cc(NC(=O)Cc2ccc(OC3(C(=O)N[C@H](CC(C)C)C(=O)O)CCCC3)cc2)c1 | 119 to 120
Cn1c2c(c3cc(F)ccc31)C(=O)CCC2 | 158
CC1(O)CC(=O)OC(c2ccc(-c3ccccc3)cc2)C1 (centres undefined) | 151 to 153
CC(C)=CCCC(C)CCS(=O)c1nc2ccccc2[nH]1 (single isomer, unassigned; (+)) | 122 to 124
Nc1ccc2c(c1)S(=O)(=O)N=C2NCCCOc1cccc(CN2CCCCC2)c1 | 191 to 193
O=C(O)C(Cc1n[nH]c2ccccc12)NC(=O)C(CS)C(F)(F)F (centres undefined) | 218 to 220
CCCc1cccnc1N(CC)C1CCN(C(=O)c2ccc[nH]2)CC1 | 115 to 116
Cc1nc2ccc(Oc3ncccc3C(=O)NCc3ccc(C(C)(C)O)cc3)cc2s1 | 131 to 133
Cc1cc(-n2ccnc2)c2cccc(OCc3c(Cl)ccc(S(=O)(=O)N4CCC[C@H]4C(=O)N(C)CCCN(C)C)c3Cl)c2n1 | 80
C[C@@H](N1CCN(C(=O)c2ccc(F)cc2F)CC1)[C@](O)(Cn1cncn1)c1ccc(F)cc1F | 63 to 65
CN1CCCC1=C1C(=O)N(c2ccccc2)c2cc(Cl)ccc21 | 134 to 137
CC(=NNc1ccc(C(F)(F)F)cc1)C(=O)NCc1ccc(Cl)nc1 | 184
COc1ccc2c(c1)c(Br)cn2C(=O)OC(C)(C)C | 111 to 112
CCCCOc1ccc(S(=O)(=O)C2(C(=O)NO)CCN(CCCC)CC2)cc1 | 121
